Measurements taken from PMC11133798, “Vosoritide treatment for children with hypochondroplasia: a phase 2 trial” (eClinicalMedicine, 2024).
Where “and” joins values, the source holds several entries; their conditions need not be identical. Identical values can stand only once.

Legend:
[1] = tested on: children with hypochondroplasia; assay: Phase 2 open-label trial: height efficacy outcomes (annualized growth velocity, height SDS); format: in vivo, human; conditions: for Annualized growth velocity, treatment period / Annualized growth velocity SDS, treatment period: SD
Procedure: The study consists of a 6-month observation period to establish a baseline annualized growth velocity followed by a 12-month intervention period during which vosoritide is administered daily via subcutaneous injection at a dose of 15 μg/kg/day, the same dose as used in the Phase 3 trial of children with achondroplasia.[7] […] Details of the protocol can be found in the Supplementary Materials.
The study has 3 prespecified co-primary outcomes: 1. To evaluate the safety and tolerability of daily subcutaneous injections of vosoritide administered for 12 months in patients with selected genetic causes of short stature, 2. To evaluate the change from baseline in age-sex standardized annualized growth velocity after 12 months of daily SC injections of vosoritide in patients with selected genetic causes of short stature, and 3. To evaluate the change from baseline in age-sex standardized height SDS after 12 months of daily SC injections of vosoritide in patients with selected genetic causes of short stature. Annualized growth velocity was standardized using data from the First Zurich Longitudinal Study of Growth and Development[9] as it includes growth velocity data starting at age 2.5 years. Height SDS was calculated using the United States CDC growth charts.[8] Hypochondroplasia specific height SDS was calculated using recently published hypochondroplasia growth curves.[10] To measure these outcomes, the following 3 co-primary endpoints were specified: 1. The incidence of adverse events per participant, 2. The change from baseline in age-sex standardized annualized growth velocity after 12 months of treatment, and 3. The change from baseline in age-sex standardized height SDS after 12 months of treatment. Height was measured five times at each study visit on a wall-mounted calibrated Harpenden stadiometer. The average of all five values was used. Safety assessments included routine laboratory evaluations at each visit, baseline and Month 12 echocardiograms, electrocardiograms at each visit, vital signs measurements, and spine X-rays at Day 1 and Month 12.
No formal power calculations were done for this proof of principle study. Sample size was determined based on logistical feasibility. Medication adherence was calculated using the number of returned empty vials divided by the number of days of prescribed therapy. Demographics and clinical characteristics were summarized with mean and standard deviation (SD), median and interquartile (IQR) for numerical variables, frequency and proportion for categorical variables. Primary and secondary clinical outcomes were summarized with mean (SD) for the 6-month observation period and the 12-month treatment period. Paired t-tests were carried out to compare the difference between the treatment and observation periods. The corresponding p-value and 95% confidence interval (CI) were reported. Box and whisker plots were used for both primary endpoints (annualized growth velocity and height SDS) and exploratory endpoints (CXM and cGMP) to visualize the trends for the change from baseline to each of the follow-up visits. Safety data (AEs) were summarized as count and percentage of patients as well as the number of total occurrences per each listed AE for the observation period and the treatment period, respectively. As exploratory analyses, the primary endpoints were stratified based on age, baseline growth velocity and baseline height SDS. The summaries of mean (SD) for each visit, mean differences between treatment and observation periods, and the corresponding p-value and 95% CI were all reported. Parent reported quality of life using the QoLISSY scale was also reported with a similar tabular format. Data were analyzed using SAS for Windows version 9.4 (SAS Institute Inc., Cary, NC). A two-sided test with a significance level of 0.05 was used for all hypothesis tests.

[2] = tested on: collagen X biomarker (CXM); assay: Serum collagen X biomarker (CXM) by ELISA; format: in vivo, human
Procedure: Secondary outcomes included the change in body proportions as measured by sitting height to standing height ratio and arm span minus standing height, as well as the change in bone age to chronological age ratio after 12 months of therapy. Sitting height was measured three times at each visit using a sitting height table. The average of the three values was used. Sitting height to standing height ratio and arm span minus standing height were standardized for age and sex using available reference data and SDS were calculated.[11]^,[12] Bone age X-rays were read by a single reviewer who was blinded to participant ID, age and time point. Exploratory endpoints included pharmacokinetic parameters, pharmacodynamic markers including collagen X biomarker (CXM) levels and urine cGMP production, and changes in quality of life as measured by the QoLISSY scale.[13] CXM levels in serum were measured in duplicate via an ELISA assay at the Shriners Hospitals for Children in Portland, Oregon as previously described.[14] The average of the two values was used for analysis. Urine samples were obtained for cGMP measurement at baseline and 60, 120, and 240 min after vosoritide injections at the Day 1, Month 6 and Month 12 visits. cGMP levels were assayed at ICON Laboratories (Farmingdale, NY) and were normalized to urine creatinine levels at each time point.

PGQEHPNARKYKGANKKGLSKGCFGLKLDRIGSMSGLGC (disulfide) [vosoritide, recombinant 39-amino-acid C-type natriuretic peptide analog expressed in E. coli, cyclic by an intramolecular disulfide bond]
Annualized growth velocity, treatment period ([1]; 15 μg/kg/day SC daily, 12-month treatment period, n=24, mean (SD), 6-month observation period 5.12 (1.36)): 6.93 (0.93) cm/year
Standing height SDS, change during treatment period ([1]; CDC growth charts, Day 1 to Month 12, n=24, mean (95% CI), change in observation period 0.01 (−0.06, 0.08)): 0.37 (0.27, 0.47) SD
Hypochondroplasia specific standing height SDS, change during treatment period ([1]; Day 1 to Month 12, n=24, mean (95% CI), change in observation period 0.03 (−0.12, 0.19)): 0.41 (0.32, 0.50) SD
Annualized growth velocity SDS, treatment period ([1]; age-sex standardized (First Zurich Longitudinal Study), 15 μg/kg/day SC, 12-month treatment, n=24, mean (SD), observation period −1.14 (1.29)): 1.12 (1.05) cm/year
Annualized growth velocity, Month 6 versus Month 12 visit ([1]; n=24, on treatment): no significant difference
Increase in annualized growth velocity, single participant with treatment interruption ([1]; person, vosoritide suspended for 40 days for immune thrombocytopenia): 2.4 cm/year
Annualized growth velocity, treatment period ([1]; subgroup Age 3 to <5 Year (N=10), 12-month treatment, 15 μg/kg/day SC, mean (SD), observation 5.97 (1.38)): 7.32 (0.79) cm/yr
Annualized growth velocity SDS, treatment period ([1]; subgroup Age 3 to <5 Year (N=10), mean (SD), observation -0.82 (1.12)): 1.23 (1.01) cm/yr
Annualized growth velocity, treatment period ([1]; subgroup Age 5 to <9 Year (N=11), mean (SD), observation 4.27 (0.75)): 6.91 (0.80) cm/yr
Annualized growth velocity SDS, treatment period ([1]; subgroup Age 5 to <9 Year (N=11), mean (SD), observation -1.93 (0.81)): 1.29 (1.13) cm/yr
Annualized growth velocity SDS, treatment period ([1]; subgroup Age 9 to <11 Year (N=3), mean (SD), observation 0.71 (1.12)): 0.16 (0.38) cm/yr
Annualized growth velocity, treatment period ([1]; subgroup Age 9 to <11 Year (N=3), mean (SD), observation 5.37 (1.53)): 5.71 (0.98) cm/yr
Annualized growth velocity, treatment period ([1]; subgroup GV baseline <=5.0 (N=14), mean (SD), observation 4.17 (0.59)): 6.91 (1.01) cm/yr
Annualized growth velocity, treatment period ([1]; subgroup GV baseline > 5.0 (N=10), mean (SD), observation 6.45 (0.94)): 6.96 (0.85) cm/yr
Annualized growth velocity, treatment period ([1]; subgroup Height SDS baseline -3.5 to <=-3.0 (N=9), mean (SD), observation 5.17 (0.89)): 6.88 (0.84) cm/yr
Annualized growth velocity, treatment period ([1]; subgroup Height SDS baseline <=-3.5 (N=7), mean (SD), observation 4.67 (1.11)): 6.64 (1.14) cm/yr
Annualized growth velocity, treatment period ([1]; subgroup Height SDS baseline >-3.0 (N=8), mean (SD), observation 5.46 (1.95)): 7.24 (0.86) cm/yr
Change in annualized growth velocity (SDS), single participants without the Asn540Lys variant in FGFR3 ([1]; two participants (Gly342Cys, Ser351Phe per Table 1), one value each, cohort mean 2.26 SD): 2.5 SD and 2.4 SD
CXM levels, Month 6 versus Month 12 visit ([2]; n=24, on treatment): no significant differences
CXM, Month 12 ([2]; serum, ELISA in duplicate, 15 μg/kg/day SC, mean (SD), Day 1 22.48 (6.49), SD): 41.62 (15.86) ng/ml
